The test system of this experiment is BDF1 mice, Lewis lung carcinoma iv, survival T/C. Nature of the experiment: NCI In Vivo Anticancer Drug Screen. Data for tumor model Lewis Lung Carcinoma (intravenous) in B6D2F1 (BDF1) mice. Conditions: endpoint: median survival time, higher = longer survival. The procedure: The antitumor activity of compounds was measured in mice bearing transplantable tumors. Survival or tumor size were measured and the results are expressed as the measurement made in the treated group (T) divided by the measurement made in the vehicle treated control group (C). The tumor model used in this assay is Lewis Lung Carcinoma (intravenous) in B6D2F1 (BDF1) mice

The mark [1] stands for this setting: dose: 25.0 mg/kg/injection, schedule: Q01DX009 (ip), vehicle: Klucel (hydroxypropylcellulose) (HPC).
The mark [2] stands for this setting: dose: 50.0 mg/kg/injection, schedule: Q01DX009 (ip), vehicle: Klucel (hydroxypropylcellulose) (HPC).
Where [3] appears, read: dose: 12.5 mg/kg/injection, schedule: Q01DX009 (ip), vehicle: suspension in saline.
The mark [4] stands for this setting: dose: 25.0 mg/kg/injection, schedule: Q01DX009 (ip), vehicle: suspension in saline.

Consider 10 compounds from PubChem BioAssay AID274 (DTP/NCI, 2004).

Molecules are shown by their SMILES. Where “and” joins values, the source holds several entries; their conditions need not be identical. Equal values may be shown once. Inconclusive results and toxic doses are left out.

For the compound `CN(Cc1cnc2nc(N)nc(N)c2n1)c1ccc(C(=O)N[C@@H](CCC(=O)O)C(=O)O)cc1`, the T/C (dose: 0.23 mg/kg/injection, schedule: Q01DX021 (ip), vehicle: sodium bicarbonate) was 105 % of control; the T/C (dose: 0.25 mg/kg/injection, schedule: Q01DX009 (ip), vehicle: sodium bicarbonate) was 103 % of control; the T/C (dose: 0.39 mg/kg/injection, schedule: Q01DX009 (ip), vehicle: sodium bicarbonate) is 102 % of control; the T/C (dose: 0.39 mg/kg/injection, schedule: Q01DX021 (ip), vehicle: sodium bicarbonate) was 102 % of control; the T/C (dose: 0.5 mg/kg/injection, schedule: Q01DX009 (ip), vehicle: sodium bicarbonate) is 121 % of control; the T/C (dose: 0.65 mg/kg/injection, schedule: Q01DX009 (ip), vehicle: sodium bicarbonate) is 100 % of control. The T/C was 105 % of control (dose: 0.65 mg/kg/injection, schedule: Q01DX021 (ip), vehicle: sodium bicarbonate); 107 % of control and 114 % of control and 118 % of control (dose: 1.0 mg/kg/injection, schedule: Q01DX009 (ip), vehicle: sodium bicarbonate); 95 % of control (dose: 1.08 mg/kg/injection, schedule: Q01DX009 (ip), vehicle: sodium bicarbonate); 114 % of control (dose: 1.08 mg/kg/injection, schedule: Q01DX021 (ip), vehicle: sodium bicarbonate); 110 % of control (dose: 1.8 mg/kg/injection, schedule: Q01DX009 (ip), vehicle: sodium bicarbonate); 96 % of control and 114 % of control (dose: 2.0 mg/kg/injection, schedule: Q01DX009 (ip), vehicle: sodium bicarbonate). Also, the T/C by setting is: (dose: 2.5 mg/kg/injection, schedule: Q04DX003 (ip), vehicle: sodium bicarbonate) 90 % of control; (dose: 3.0 mg/kg/injection, schedule: Q01DX009 (ip), vehicle: sodium bicarbonate) 114 % of control; (dose: 3.9 mg/kg/injection, schedule: Q04DX006 (ip), vehicle: sodium bicarbonate) 96 % of control; (dose: 4.0 mg/kg/injection, schedule: Q01DX009 (ip), vehicle: sodium bicarbonate) 96 % of control; (dose: 5.0 mg/kg/injection, schedule: Q04DX003 (ip), vehicle: sodium bicarbonate) 103 % of control; (dose: 6.5 mg/kg/injection, schedule: Q04DX003 (ip), vehicle: sodium bicarbonate) 100 % of control and 103 % of control. In addition, the T/C (dose: 6.5 mg/kg/injection, schedule: Q04DX003 (iv), vehicle: sodium bicarbonate) was 107 % of control; the T/C (dose: 6.5 mg/kg/injection, schedule: Q04DX006 (ip), vehicle: sodium bicarbonate) is 109 % of control; the T/C (dose: 10.0 mg/kg/injection, schedule: Q04DX003 (ip), vehicle: sodium bicarbonate) is 108 % of control; the T/C (dose: 10.8 mg/kg/injection, schedule: Q04DX003 (ip), vehicle: sodium bicarbonate) is 119 % of control and 123 % of control; the T/C (dose: 10.8 mg/kg/injection, schedule: Q04DX003 (iv), vehicle: sodium bicarbonate) is 116 % of control; the T/C (dose: 10.8 mg/kg/injection, schedule: Q04DX006 (ip), vehicle: sodium bicarbonate) was 120 % of control. In addition, the T/C (dose: 18.0 mg/kg/injection, schedule: Q04DX003 (iv), vehicle: sodium bicarbonate) is 120 % of control; the T/C (dose: 20.0 mg/kg/injection, schedule: Q04DX003 (ip), vehicle: sodium bicarbonate) was 123 % of control; the T/C (dose: 30.0 mg/kg/injection, schedule: Q04DX006 (ip), vehicle: sodium bicarbonate) is 95 % of control.

Regarding `O=C(Nc1ccc(N=C=S)cc1Cl)c1cc(Cl)cc(Cl)c1O`, the T/C is, setting by setting: (dose: 6.25 mg/kg/injection, schedule: Q01DX009 (ip), vehicle: Klucel (hydroxypropylcellulose) (HPC)) 97 % of control; (dose: 12.5 mg/kg/injection, schedule: Q01DX009 (ip), vehicle: Klucel (hydroxypropylcellulose) (HPC)) 97 % of control; under setting [1], 105 % of control; under setting [2], 116 % of control.

For the compound `CCOC(=O)c1c[nH]c2oc(/C=N/N3CC(CN4CCOCC4)OC3=O)cc2c1=O` (stereo not drawn), the T/C by setting is: (dose: 6.25 mg/kg/injection, schedule: Q01DX009 (ip), vehicle: suspension in saline) 108 % of control; under setting [3], 105 % of control; under setting [4], 104 % of control; (dose: 50.0 mg/kg/injection, schedule: Q01DX009 (ip), vehicle: suspension in saline) 114 % of control; (dose: 100.0 mg/kg/injection, schedule: Q01DX009 (ip), vehicle: suspension in saline) 106 % of control.

In the case of `C=C1C(C)C2C(Cc3ccccc3)NC(=O)C23C(OC(C)=O)/C=C/C(C)(O)CC(C)C/C=C/C3C1O` (stereo not drawn), the T/C (dose: 0.37 mg/kg/injection, schedule: Q01DX009 (ip), vehicle: Klucel (hydroxypropylcellulose) (HPC)) was 93 % of control; the T/C (dose: 0.38 mg/kg/injection, schedule: Q01DX009 (ip), vehicle: Klucel (hydroxypropylcellulose) (HPC)) is 107 % of control; the T/C (dose: 0.75 mg/kg/injection, schedule: Q01DX009 (ip), vehicle: Klucel (hydroxypropylcellulose) (HPC)) is 102 % of control; the T/C (dose: 1.5 mg/kg/injection, schedule: Q01DX009 (ip), vehicle: Klucel (hydroxypropylcellulose) (HPC)) was 96 % of control and 105 % of control; the T/C (dose: 3.0 mg/kg/injection, schedule: Q01DX009 (ip), vehicle: Klucel (hydroxypropylcellulose) (HPC)) was 104 % of control and 106 % of control; the T/C (dose: 6.0 mg/kg/injection, schedule: Q01DX009 (ip), vehicle: Klucel (hydroxypropylcellulose) (HPC)) is 101 % of control and 110 % of control. For the setting “dose: 12.0 mg/kg/injection, schedule: Q01DX009 (ip), vehicle: Klucel (hydroxypropylcellulose) (HPC)”, the T/C was 109 % of control.

`Nc1ncn(C2OC(CO)C(O)C2O)c(=O)n1` (stereo not drawn): the T/C (dose: 0.37 mg/kg/injection, schedule: Q01DX009 (ip), vehicle: saline) is 100 % of control; the T/C (dose: 0.75 mg/kg/injection, schedule: Q01DX009 (ip), vehicle: saline) is 113 % of control and 119 % of control; the T/C (dose: 1.5 mg/kg/injection, schedule: Q01DX009 (ip), vehicle: saline) is 109 % of control and 115 % of control; the T/C under setting [3] is 115 % of control; the T/C under setting [4] was 124 % of control; the T/C (dose: 400.0 mg/kg/injection, schedule: Q01DX009 (ip), vehicle: suspension in saline) is 175 % of control.

In the case of `CS(=O)(=O)OCCCNCCCOS(C)(=O)=O`, the T/C (dose: 5.0 mg/kg/injection, schedule: Q01DX009 (ip), vehicle: saline) was 96 % of control; the T/C (dose: 10.0 mg/kg/injection, schedule: Q01DX009 (ip), vehicle: saline) is 106 % of control and 114 % of control; the T/C (dose: 20.0 mg/kg/injection, schedule: Q01DX009 (ip), vehicle: saline) is 108 % of control; the T/C (dose: 40.0 mg/kg/injection, schedule: Q01DX009 (ip), vehicle: saline) was 113 % of control.

For the compound `Cc1cc(N(CCOS(C)(=O)=O)CCOS(C)(=O)=O)ccc1C=Nc1ccc(-c2nc(Cc3ccccc3)sc2C)cc1`, the T/C was 117 % of control under setting [1] and 87 % of control under setting [2].

Consider `COC1/C=C/O[C@@]2(C)Oc3c(C)c(O)c4c(O)c(cc(O)c4c3C2=O)NC(=O)/C(C)=C\C=C\[C@H](C)C(O)[C@@H](C)[C@@H](O)[C@@H](C)[C@H](OC(C)=O)[C@@H]1C` (stereo partly drawn), for which the T/C was 102 % of control (dose: 12.5 mg/kg/injection, schedule: Q01DX009 (ip), vehicle: saline with Tween-80); 101 % of control (dose: 25.0 mg/kg/injection, schedule: Q01DX009 (ip), vehicle: saline with Tween-80); 103 % of control (dose: 50.0 mg/kg/injection, schedule: Q01DX009 (ip), vehicle: saline with Tween-80); 107 % of control (dose: 100.0 mg/kg/injection, schedule: Q01DX009 (ip), vehicle: saline with Tween-80); 102 % of control (dose: 200.0 mg/kg/injection, schedule: Q01DX009 (ip), vehicle: saline with Tween-80); 111 % of control (dose: 400.0 mg/kg/injection, schedule: Q01DX009 (ip), vehicle: saline with Tween-80).

Regarding `COc1cc2cc(c1Cl)N(C)C(=O)C[C@H](OC(=O)[C@H](C)N(C)C(C)=O)[C@]1(C)O[C@H]1[C@H](C)[C@@H]1C[C@@](O)(NC(=O)O1)[C@H](OC)C=C/C=C(\C)C2`, the T/C is 94 % of control (dose: 54.0 micrograms/kg/injection, schedule: Q04DX003 (ip), vehicle: water); 94 % of control (dose: 90.0 micrograms/kg/injection, schedule: Q04DX003 (ip), vehicle: water); 90 % of control (dose: 150.0 micrograms/kg/injection, schedule: Q04DX003 (ip), vehicle: water).

`N[C@H](C(=O)O)[C@@H]1CC(Cl)=NO1`: the T/C (dose: 0.5 mg/kg/injection, schedule: Q01DX009 (ip), vehicle: saline) was 124 % of control; the T/C (dose: 1.0 mg/kg/injection, schedule: Q01DX009 (ip), vehicle: saline) is 103 % of control; the T/C (dose: 2.0 mg/kg/injection, schedule: Q01DX009 (ip), vehicle: saline) was 111 % of control; the T/C (dose: 4.0 mg/kg/injection, schedule: Q01DX009 (ip), vehicle: saline) was 115 % of control.
